Measured values as given in US11772041B2, “Composite amine absorbent, and device and method for removing CO2 or H2S, or both of CO2 and H2S” (MITSUBISHI HEAVY INDUSTRIES, LTD., priority 2019, dated 2023).

Key:
[1] = Boiling point of ether bond-containing compounds; details: Table 5, Test Example 23; under atmospheric pressure
[2] = Solubility in water of ether bond-containing compounds; format: physicochemical
From the text: The solubilities in water of the first ether bond-containing compound (propylene glycol monopropyl ether) in Test Example 1, the first ether bond-containing compound (dipropylene glycol monopropyl ether) in Test Example 7, and the ether bond-containing compound of the chemical formula I wherein R^2 has 4 (C4) or more carbon atoms (butylene glycol monobutyl ether) were compared.
The solubilities in water of the first ether bond-containing compound (propylene glycol monopropyl ether) in Test Example 1, the ether bond-containing compound (dipropylene glycol monopropyl ether) in Test Example 7, and the ether bond-containing compound of the chemical formula I wherein R^3 is an alkyl group (propylene glycol dibutyl ether) were compared.

For `COCCOC(C)=O` [Ethylene glycol monomethyl ether acetate, ethylene glycol monomethyl ether acetate], which “Boiling point (° c.)” value [1] is on record?
Its value is 143 ° c.

With `CCCCOCCCCO` [Butylene glycol monobutyl ether, butylene glycol monobutyl ether] as the molecule, how does the “Solubility in water (% by weight)” value ([2]; Table 3, Test Example 21) read?
The value was “About 1 % by weight”.

With `CCCCOCC(C)OCCCC` (stereo not drawn) [Propylene glycol dibutyl ether, propylene glycol dibutyl ether] as the molecule, how does the “Solubility in water (% by weight)” value ([2]; Table 4, Test Example 22) read?
Its value is “Less than 1 % by weight”.
